According to patent publication US4236010A, “Phenyl-quinolizidines” (Hoffmann-La Roche Inc., priority 1978, dated 1980):
Structures can show the parent of a compound that is named as a salt.

Tests used:
[1] = "Pole Climbing" test (rat); type: in vivo; conditions: ip, 6 h; for ED50: Rattus norvegicus, read-out: Pole-Climbing BCR (Block of Conditioned Reflex) ED50 i.p.; for ED10: rat, i.p., inhibition of the unconditioned reaction, ED 10, read-out: Pole-Climbing BUR (Block of Unconditioned Reflex) ED10 i.p.
Description: "Pole Climbing" test (rat)
In this test, there was used, for each dosage, a group of 10 rats which had been trained to escape an electric shock, unconditioned stimulus, produced via the lattice floor immediately after an acoustic signal, conditioned stimulus, by jumping up a vertical isolated pole in the experimental cage.

[2] = target: T1, calf striatum (specific binding of [^3 H] spiroperidol on the receptor) (Bos taurus, UniProt P20288); assay: Spiroperidol-binding test (in vitro); conditions: 50% detachment of specific [^3 H] spiroperidol binding
T1 construct: calf striatum was used as the receptor; from tissue; host or cells: calf striatum
Description: Spiroperidol-binding test (in vitro)
In this in vitro test calf striatum was used as the receptor [Creese et al., Life Sci. 17, 993 (1975)] and incubated with [^3 H] spiroperidol in analogy to the method described by Fields et al., Brain Research 136, 578 (1977).

Writhing test (mouse) = type: in vivo; conditions: po, 1 h, male mice, p.o., 60 minutes after administration
Description: Eight male mice (20-22 g.) per dosage, were used for this test. Sixty minutes after oral administration of the test substance, the mice were injected intraperitoneally with 10 ml/kg of the test solution. Following a latent period of 5 minutes, the number of animals in which no more than one characteristic writhing symptom (convulsive stretching movement of the body) occurred over five minutes was registered.

Hot-plate test (mouse) = type: in vivo; conditions: po, 1 h, mice, p.o., 60 minutes after administration, plate 60°±0.5° C
Description: Eight mice (20-22 g) were used per dosage. Sixty minutes after oral administration of the test substance, the mice were placed on a heated metal plate of 60°±0.5° C. Untreated mice begin to lick their paws within a maximum of 10 seconds.

T1 sequence (P20288 whole entry): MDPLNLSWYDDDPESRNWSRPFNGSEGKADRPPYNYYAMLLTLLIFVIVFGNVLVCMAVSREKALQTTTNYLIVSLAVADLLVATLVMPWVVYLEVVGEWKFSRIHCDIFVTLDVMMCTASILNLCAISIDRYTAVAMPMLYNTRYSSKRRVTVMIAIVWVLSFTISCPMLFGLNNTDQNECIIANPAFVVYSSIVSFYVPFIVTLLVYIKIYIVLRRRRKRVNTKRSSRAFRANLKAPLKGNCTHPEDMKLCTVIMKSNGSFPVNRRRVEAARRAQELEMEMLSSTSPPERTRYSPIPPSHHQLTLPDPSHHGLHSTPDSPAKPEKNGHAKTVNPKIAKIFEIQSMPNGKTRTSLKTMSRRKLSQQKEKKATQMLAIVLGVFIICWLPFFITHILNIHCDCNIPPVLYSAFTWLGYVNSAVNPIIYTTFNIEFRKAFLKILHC

SMILES	ED50 [1]	ED10 [1]	IC50 [2]	ED50 (Writhing test (mouse))	ED50 (Hot-plate test (mouse))
Cc1cc2[nH]c(=O)n([C@@H]3CCN4C[C@@H](c5ccccc5Cl)CC[C@@H]4C3)c2cc1C (relative stereo) [rac-1-[(9aβH)-7β-(o-Chlorophenyl)octahydro-2H-quinolizin-2α-yl]-5,6-dimethyl-2-benzimidazolinone HCl]	1.75 mg/kg	4.55 mg/kg	5 nM	–	–
O=c1[nH]c2cc(C(F)(F)F)ccc2n1[C@@H]1CCN2C[C@@H](c3ccccc3Cl)CC[C@@H]2C1 (relative stereo) [rac-1-[(9aβH)-7β-(o-Chlorophenyl)octahydro-2H-quinolizin-2α-yl]-5-trifluoromethyl-2-benzimidazolinone HCl]	0.21 mg/kg	0.41 mg/kg	10 nM	–	–
O=c1[nH]c2cc(Cl)ccc2n1[C@@H]1CCN2C[C@@H](c3ccccc3F)CC[C@@H]2C1 (relative stereo) [rac-1-[(9aβH)-7β-(o-Fluorophenyl)octahyro-2H-quinolizin-2α-yl]-5-chloro-2-benzimidazolinone HCl]	0.064 mg/kg	0.175 mg/kg	–	–	–
CC(C)(C)[C@]1(O)CCN2C[C@@H](c3ccc(Cl)cc3Cl)CC[C@@H]2C1 (relative stereo) [rac-(9aβ H)-2α-tert.-Butyl-7β-(2,4-dichlorophenyl) octahydro-2H-quinolizin-2-ol HCl]	6.4 mg/kg	5.4 mg/kg	79 nM	–	–
CCC(=O)O[C@@]1(c2ccccc2)CCN2C[C@@H](c3cccc(OC)c3)CC[C@@H]2C1 (relative stereo) [rac-(9aβH)-2α-Phenyl-7β-(m-methoxyphenyl)-octahydro-2H-quinolizin-2-yl propionate HCl]	–	–	–	2.8 mg/kg	12 mg/kg
CCCC[C@]1(OC(C)=O)CCN2C[C@@H](c3ccccc3)CC[C@@H]2C1 (relative stereo) [rac-(9aβH)-2α-n-Butyl-7β-phenyl-octahydro-2H-quinozilin-2-yl acetate HCl]	–	–	–	0.75 mg/kg	25 mg/kg
CC(C)(C)[C@]1(OC(=O)C(F)(F)F)CCN2C[C@@H](c3ccccc3)CC[C@@H]2C1 (relative stereo) [rac-(9aβH)-2α-tert.Butyl-7β-phenyl-octahydro-2H-quinolizin-2-yl trifluoroacetate HCl]	–	–	–	8.7 mg/kg	86 mg/kg
CC(=O)O[C@]1(c2ccccc2)CCN2C[C@@H](c3ccccc3Cl)CC[C@@H]2C1 (relative stereo) [rac-(9aβH)-2β-Phenyl-7β-(o-chlorophenyl)-octahydro-2H-quinolizin-2-yl acetate HCl]	–	–	–	116 mg/kg	284 mg/kg
CCCCC1(OC(C)=O)CCN2CC(c3ccccc3)CCC2C1.Cl (single isomer, unassigned; (+)) [(+)-2-Butyloctahydro-7-phenyl-2H-quinolizin-2-yl acetate HCl]	–	–	–	0.19 mg/kg	2.6 mg/kg
CC(C)(C)[C@]1(O)CCN2C[C@@H](c3ccc(Cl)cc3Cl)CC[C@@H]2C1 [(-)-(2S,7R,9aR)-2-tert.-Butyl-7-(2,4-dichlorophenyl) octahydro-2H-quinolizin-2-ol HCl]	4.7 mg/kg	3.8 mg/kg	41 nM	–	–
